The target in one assay is T1, FGFR1 (Homo sapiens, UniProt P11362).
T1 construct: made in house; host or cells: E. coli (BL21-derived), T7 phage
Nature of the assay: Kinase binding assay (kinase-tagged T7 phage, affinity beads, qPCR), Kd. Particulars: read-out: FGFR1 (Kd nM). Put shortly: (§1)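 First, phage lysates carrying tagged kinase are made in E. coli at 32° C. Next, they are combined with blocked biotin-ligand streptavidin beads and compound at 0.9% final DMSO. Finally, eluted kinase is measured by qPCR and Kd is fitted with the Hill equation.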

In another assay the target is T2, FGFR2 (Homo sapiens, UniProt P21802).
T2 construct: made in house; host or cells: E. coli (BL21-derived), T7 phage
The assay is described as above. The following applies: read-out: FGFR2 (Kd nM). The method in brief:
as §1

For the next assay, the target named is T3, FGFR3 (Homo sapiens, UniProt P22607).
T3 construct: made in house; host or cells: E. coli (BL21-derived), T7 phage
The description is as above. Particulars: read-out: FGFR3 (Kd nM). Put shortly: as §1

In the next assay the target is T4, FGFR3 (V555M) (Homo sapiens, UniProt P22607, V555M).
T4 construct: made in house; host or cells: E. coli (BL21-derived), T7 phage
The assay is described as above. The following applies: V555M mutant; read-out: FGFR3 (V555M) (Kd nM). The method in brief:
as §1

In the next assay the target is T5, FGFR4 (Homo sapiens, UniProt P22455).
T5 construct: made in house; host or cells: E. coli (BL21-derived), T7 phage
The assay is described as above. Particulars: read-out: FGFR4 (Kd nM). The method in brief: as §1

Assay [1] deals with KATO-III cell line (FGFR2 amplification). Nature of the assay: Cancer cell line cell viability assay (Cell Titer-Glo), 72 hr. It is filed as cell-based. Particulars: Homo sapiens, KATO III. Put shortly: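 Cells seeded at 5,000-20,000/well, incubated overnight, then treated with a 9-dose, 4-fold dilution series from 3 μM in triplicate at 37° C, 5% CO2. Viability read by Cell Titer-Glo 2.0 luminescence as percent of DMSO control; IC50 from 4-parameter variable-slope sigmoidal fit.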
For orientation: In ATP-based viability assays light output follows the ATP content of the culture.

For assay [2], the system named is KG-1 cell line (FGFR 1-fusion). The assay is described as above. Type of assay: cell-based. Particulars: Homo sapiens, KG-1, KG-1 cell line (FGFR1-fusion). The method in brief:
(§2)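 Intracellular ATP was measured by Cell Titer-Glo 2.0 luminescence after cells were incubated with compound dilutions (top 3 μM, 4-fold, 9 doses). Values were expressed relative to DMSO-treated cells and IC50 was calculated from a variable-slope dose-response curve.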

Assay [3] concerns RT112/84 cell line (FGFR3-fusion). Described as above. Type of assay: cell-based. Particulars: Homo sapiens, RT112/84, RT112/84 cell line (FGFR3-fusion). Put shortly: as §2
In assay [4] the test system is HuH7 cell line (FGF19 amplification). Briefly: Cancer cell line cell viability assay (Cell Titer-Glo), 120 hr. The following applies: Homo sapiens, Huh-7. It is filed as cell-based. The method in brief: as §2
Assay [5] concerns MDA-MB-453 cell line (FGFR4-Y367C). Described as above. Particulars: Homo sapiens. Type of assay: cell-based. The method in brief:
as §2

We go through ten compounds from patent US20250368666A1, “INDAZOLE COMPOUNDS” (TYRA BIOSCIENCES, INC., priority 2022, published 2025).

T2 sequence (P21802 22-821): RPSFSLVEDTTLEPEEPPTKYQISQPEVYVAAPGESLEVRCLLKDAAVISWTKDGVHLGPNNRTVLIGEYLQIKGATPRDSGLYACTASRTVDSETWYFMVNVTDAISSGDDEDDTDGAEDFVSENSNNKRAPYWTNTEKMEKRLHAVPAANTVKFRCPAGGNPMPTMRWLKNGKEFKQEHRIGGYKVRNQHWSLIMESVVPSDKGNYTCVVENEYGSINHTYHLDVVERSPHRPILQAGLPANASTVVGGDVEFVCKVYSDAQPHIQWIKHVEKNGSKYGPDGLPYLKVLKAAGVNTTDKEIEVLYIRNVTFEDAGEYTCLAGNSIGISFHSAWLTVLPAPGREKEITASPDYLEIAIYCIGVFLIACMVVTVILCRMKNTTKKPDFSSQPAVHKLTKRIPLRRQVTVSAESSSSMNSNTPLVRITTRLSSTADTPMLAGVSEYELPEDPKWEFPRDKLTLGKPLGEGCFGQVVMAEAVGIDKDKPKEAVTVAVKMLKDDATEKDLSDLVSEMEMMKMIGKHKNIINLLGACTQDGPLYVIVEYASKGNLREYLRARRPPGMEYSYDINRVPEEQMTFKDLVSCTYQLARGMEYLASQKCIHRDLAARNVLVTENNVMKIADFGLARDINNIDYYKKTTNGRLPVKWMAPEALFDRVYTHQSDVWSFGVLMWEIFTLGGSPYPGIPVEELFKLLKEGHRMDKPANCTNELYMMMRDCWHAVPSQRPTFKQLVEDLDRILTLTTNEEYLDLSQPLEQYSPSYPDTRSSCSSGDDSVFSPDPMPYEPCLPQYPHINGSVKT
T5 sequence (P22455 22-802): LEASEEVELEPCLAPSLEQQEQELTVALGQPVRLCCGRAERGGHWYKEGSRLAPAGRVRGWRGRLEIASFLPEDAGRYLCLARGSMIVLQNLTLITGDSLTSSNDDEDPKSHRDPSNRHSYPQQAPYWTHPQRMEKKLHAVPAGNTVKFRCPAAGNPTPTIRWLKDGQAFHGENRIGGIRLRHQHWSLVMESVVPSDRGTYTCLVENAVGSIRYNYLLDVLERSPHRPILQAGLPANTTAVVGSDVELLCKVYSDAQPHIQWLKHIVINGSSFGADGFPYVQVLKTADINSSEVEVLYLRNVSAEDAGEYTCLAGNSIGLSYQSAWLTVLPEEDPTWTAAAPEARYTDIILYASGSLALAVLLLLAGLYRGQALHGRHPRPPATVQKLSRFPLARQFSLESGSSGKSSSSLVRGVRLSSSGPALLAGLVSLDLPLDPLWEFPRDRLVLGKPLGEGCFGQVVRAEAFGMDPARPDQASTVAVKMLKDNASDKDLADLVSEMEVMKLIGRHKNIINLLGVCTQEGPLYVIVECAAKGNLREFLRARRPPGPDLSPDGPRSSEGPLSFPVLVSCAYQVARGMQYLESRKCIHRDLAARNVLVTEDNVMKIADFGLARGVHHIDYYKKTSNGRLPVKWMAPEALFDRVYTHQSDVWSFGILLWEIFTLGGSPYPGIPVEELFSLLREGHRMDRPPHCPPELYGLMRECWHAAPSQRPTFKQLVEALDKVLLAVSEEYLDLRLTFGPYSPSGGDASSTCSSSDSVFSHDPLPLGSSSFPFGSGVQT
T1 sequence (P11362 22-822): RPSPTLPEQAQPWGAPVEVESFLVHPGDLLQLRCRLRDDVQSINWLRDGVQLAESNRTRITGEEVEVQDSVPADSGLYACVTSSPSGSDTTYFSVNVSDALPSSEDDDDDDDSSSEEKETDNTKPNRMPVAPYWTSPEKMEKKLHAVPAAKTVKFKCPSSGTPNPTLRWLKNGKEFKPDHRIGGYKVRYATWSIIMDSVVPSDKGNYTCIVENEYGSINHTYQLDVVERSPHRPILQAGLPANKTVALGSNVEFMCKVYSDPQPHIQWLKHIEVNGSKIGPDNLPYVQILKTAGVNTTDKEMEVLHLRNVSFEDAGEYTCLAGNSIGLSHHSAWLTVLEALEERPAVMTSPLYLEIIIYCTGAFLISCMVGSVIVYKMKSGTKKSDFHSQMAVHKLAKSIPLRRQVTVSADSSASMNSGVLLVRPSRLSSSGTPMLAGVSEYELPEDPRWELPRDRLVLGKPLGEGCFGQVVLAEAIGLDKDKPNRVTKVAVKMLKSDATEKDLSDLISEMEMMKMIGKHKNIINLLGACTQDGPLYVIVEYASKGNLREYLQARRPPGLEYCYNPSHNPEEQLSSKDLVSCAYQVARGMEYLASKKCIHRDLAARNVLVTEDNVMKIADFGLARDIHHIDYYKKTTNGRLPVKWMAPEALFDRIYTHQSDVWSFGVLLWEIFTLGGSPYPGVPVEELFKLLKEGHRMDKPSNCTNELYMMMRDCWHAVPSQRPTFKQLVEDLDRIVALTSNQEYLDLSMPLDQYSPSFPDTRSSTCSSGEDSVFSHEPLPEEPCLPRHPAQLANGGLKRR
T3 sequence (P22607 23-806): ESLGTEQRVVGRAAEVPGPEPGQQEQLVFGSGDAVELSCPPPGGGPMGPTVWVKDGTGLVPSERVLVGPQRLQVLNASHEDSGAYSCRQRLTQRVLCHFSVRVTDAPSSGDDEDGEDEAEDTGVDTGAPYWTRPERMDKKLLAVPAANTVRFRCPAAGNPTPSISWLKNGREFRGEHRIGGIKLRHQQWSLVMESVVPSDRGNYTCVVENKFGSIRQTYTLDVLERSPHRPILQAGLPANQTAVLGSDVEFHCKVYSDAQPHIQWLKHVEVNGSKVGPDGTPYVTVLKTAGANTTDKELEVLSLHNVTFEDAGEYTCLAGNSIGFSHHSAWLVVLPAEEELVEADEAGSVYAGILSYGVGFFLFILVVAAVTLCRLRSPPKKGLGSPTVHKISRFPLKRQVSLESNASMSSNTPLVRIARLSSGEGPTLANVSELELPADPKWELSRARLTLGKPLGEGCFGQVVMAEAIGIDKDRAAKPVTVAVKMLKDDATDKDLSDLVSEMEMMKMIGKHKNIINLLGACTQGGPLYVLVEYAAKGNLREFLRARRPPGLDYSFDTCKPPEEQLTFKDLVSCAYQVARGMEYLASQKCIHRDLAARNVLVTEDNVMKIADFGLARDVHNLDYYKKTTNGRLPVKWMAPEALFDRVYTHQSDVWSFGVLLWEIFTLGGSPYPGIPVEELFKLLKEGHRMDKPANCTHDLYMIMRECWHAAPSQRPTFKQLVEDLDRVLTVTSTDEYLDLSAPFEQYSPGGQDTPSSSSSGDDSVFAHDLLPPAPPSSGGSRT
T4 sequence (P22607 23-806 V555M): as the sequence (P22607 23-806) above, with V533M counted along it

For `C[C@@H](Oc1ccc2[nH]nc(-c3cnc(N4CC(C)(CP(C)(C)=O)C4)c(C#N)c3)c2c1)c1c(Cl)cncc1Cl` [Example 6, (R)-5-(5-(1-(3,5-dichloropyridin-4-yl)ethoxy)-1H-indazol-3-yl)-2-(3-((dimethylphosphoryl)methyl)-3-methylazetidin-1-yl)nicotinonitrile], the dissociation constant Kd (in general, the constant that tells how readily two partners part at equilibrium) fell in the range of 50 to 300 nM at FGFR1; 1 to 50 nM on FGFR2; 1 to 50 nM at FGFR3; 1 to 50 nM at FGFR3 (V555M); 1 to 50 nM on FGFR4. The IC50 (as a rule, the concentration needed to halve the response being measured) in [1] is 50 to 200 nM; in assay [2] it was above 1000 nM; in [3], 50 to 200 nM; in assay [4], 0.1 to 50 nM; in assay [5], 0.1 to 50 nM.
As for `COc1cc2[nH]nc(-c3cnc(N4CC(C)(NC(C)C)C4)c(C#N)c3)c2cc1O[C@H](C)c1c(Cl)cncc1Cl` [Example 8, (R)-5-(5-(1-(3,5-Dichloropyridin-4-yl)ethoxy)-6-methoxy-1H-indazol-3-yl)-2-(3-(isopropylamino)-3-methylazetidin-1-yl)nicotinonitrile], the equilibrium dissociation constant (Kd) on FGFR1, on FGFR2, at FGFR3, at FGFR3 (V555M) and on FGFR4 was 1 to 50 nM throughout. For the same compound, the IC50 in assay [1] fell in the range of 50 to 200 nM; in [2], 50 to 200 nM; in assay [3], 0.1 to 50 nM; in assay [4], 0.1 to 50 nM; in [5], 0.1 to 50 nM.
On to `CNC1(C)CN(c2ncc(-c3n[nH]c4cc(OC)c(O[C@H](C)c5c(Cl)cncc5Cl)cc34)cc2C#N)C1` [Example 9, 5-[5-[(1R)-1-(3,5-dichloro-4-pyridyl)ethoxy]-6-methoxy-1H-indazol-3-yl]-2-[3-methyl-3-(methylamino)azetidin-1-yl]pyridine-3-carbonitrile], for which the Kd at FGFR1, on FGFR2, on FGFR3, at FGFR3 (V555M) and at FGFR4 was 1 to 50 nM in each case. Besides, the IC50 was 50 to 200 nM in assay [1]; 0.1 to 50 nM in assay [2]; 0.1 to 50 nM in assay [3]; 0.1 to 50 nM in assay [4]; 0.1 to 50 nM in assay [5].
As for `COc1cc2[nH]nc(-c3cnc(N4CC(C)(NCC5CC5)C4)c(C#N)c3)c2cc1O[C@H](C)c1c(Cl)cncc1Cl` [Example 14, 2-[3-(cyclopropylmethylamino)-3-methyl-azetidin-1-yl]-5-[5-[(1R)-1-(3,5-dichloro-4-pyridyl)ethoxy]-6-methoxy-1H-indazol-3-yl]pyridine-3-carbonitrile], the dissociation constant (Kd) on FGFR1, on FGFR2, on FGFR3, on FGFR3 (V555M) and at FGFR4 was 1 to 50 nM in each case. For the same compound, the IC50 in assay [1] lay in the range of 50 to 200 nM; in [2] it was 50 to 200 nM; in assay [3] it was 0.1 to 50 nM; in assay [4] it was 0.1 to 50 nM; in assay [5] it was 0.1 to 50 nM.
As for `COc1cc2[nH]nc(-c3cnc(N4CC(C)(N5CCOCC5)C4)c(C#N)c3)c2cc1O[C@H](C)c1c(Cl)cncc1Cl` [Example 16, (R)-5-(5-(1-(3,5-dichloropyridin-4-yl)ethoxy)-6-methoxy-1H-indazol-3-yl)-2-(3-methyl-3-morpholinoazetidin-1-yl)nicotinonitrile], the dissociation constant (Kd) at FGFR1, on FGFR2, on FGFR3, at FGFR3 (V555M) and on FGFR4 was 1 to 50 nM throughout. Further, the IC50 in assay [1] was 50 to 200 nM; in assay [2] it was 50 to 200 nM; in assay [3], 0.1 to 50 nM; in [4] it was 0.1 to 50 nM; in assay [5] it was 0.1 to 50 nM.
As for `COc1cc2[nH]nc(-c3cnc(N4CC(C)(CP(C)(C)=O)C4)c(C#N)c3)c2cc1O[C@H](C)c1c(Cl)cncc1Cl` [Example 53, (R)-5-(5-(1-(3,5-Dichloropyridin-4-yl)ethoxy)-6-methoxy-1H-indazol-3-yl)-2-(3-((dimethylphosphoryl)methyl)-3-methylazetidin-1-yl)nicotinonitrile], the dissociation constant (Kd) on FGFR1, on FGFR2, on FGFR3, at FGFR3 (V555M) and at FGFR4 was 1 to 50 nM each time. Further, the IC50 in assay [1] fell in the range of 50 to 200 nM; in assay [2], 200 to 1000 nM; in [3], 50 to 200 nM; in assay [4] it was 0.1 to 50 nM; in [5], 0.1 to 50 nM.
In the case of `CC(C)NC1(CC#N)CN(c2ncc(-c3n[nH]c4ccc(O[C@H](C)c5c(Cl)cncc5Cl)cc34)cc2F)C1` [Example 150, (R)-2-(1-(5-(5-(1-(3,5-dichloropyridin-4-yl)ethoxy)-1H-indazol-3-yl)-3-fluoropyridin-2-yl)-3-(isopropylamino)azetidin-3-yl)acetonitrile], the Kd on FGFR1 and on FGFR3 was 1 to 50 nM each time. Besides, the concentration for half-maximal inhibition (IC50) in assay [1] was in the range of 0.1 to 50 nM; in assay [2] it was 50 to 200 nM; in assay [3] it was 0.1 to 50 nM; in assay [4], 0.1 to 50 nM; in assay [5], 50 to 200 nM.
For the compound `C[C@@H](Oc1ccc2[nH]nc(-c3cnc(N4CC(CC#N)(NCC5CC5)C4)c(F)c3)c2c1)c1c(Cl)cncc1Cl` [Example 151, 2-[3-(Cyclopropylmethyl-amino)-1-[5-[5-[(1R)-1-(3,5-dichloro-4-pyridyl)ethoxy]-1H-indazol-3-yl]-3-fluoro-2-pyridyl]azetidin-3-yl]acetonitrile], the Kd at FGFR1 and on FGFR3 was 1 to 50 nM throughout. The half-inhibitory concentration (IC50) in [1] fell in the range of 50 to 200 nM; in assay [2], 50 to 200 nM; in assay [3] it was 0.1 to 50 nM; in assay [4], 0.1 to 50 nM; in assay [5], 50 to 200 nM.
On to `COc1cc2[nH]nc(-c3cnc(N4CC[C@](C)(N)C4)c(C#N)c3)c2cc1O[C@H](C)c1c(Cl)cncc1Cl` [Example 367, 2-((S)-3-amino-3-methylpyrrolidin-1-yl)-5-(5-((R)-1-(3,5-dichloropyridin-4-yl)ethoxy)-6-methoxy-1H-indazol-3-yl)nicotinonitrile], for which the dissociation constant Kd at FGFR1, on FGFR2, at FGFR3 and at FGFR4 was 1 to 50 nM throughout. Further, the IC50 is 0.1 to 50 nM in [1]; 50 to 200 nM in [2]; 0.1 to 50 nM in assay [3]; 0.1 to 50 nM in assay [4]; 0.1 to 50 nM in assay [5].
For `COc1cc2[nH]nc(-c3cnc(N4CC[C@@](C)(N)C4)c(C#N)c3)c2cc1O[C@H](C)c1c(Cl)cncc1Cl` [Example 369, 2-((R)-3-amino-3-methylpyrrolidin-1-yl)-5-(5-((R)-1-(3,5-dichloropyridin-4-yl)ethoxy)-6-methoxy-1H-indazol-3-yl)nicotinonitrile], the Kd on FGFR1, at FGFR2, at FGFR3 and on FGFR4 was 1 to 50 nM each time. In addition, the IC50 in [1] is 0.1 to 50 nM; in assay [2] it was 50 to 200 nM; in assay [3], 0.1 to 50 nM; in assay [4], 0.1 to 50 nM; in assay [5] it was 0.1 to 50 nM.
